Test [1] can be described thus: Inhibition of NS5A in HuH7 cell infected HCV genotype 1a H77 assessed as decrease in viral replication after 3 days by luciferase reporter gene assay. For orientation: In a reporter assay the amount or activity of a reporter protein is the signal.
A short description of test [2]: Inhibition of NS5A in HuH7 cell infected HCV genotype 1b Con1 assessed as decrease in viral replication after 3 days by luciferase reporter gene assay.
A short description of test [3]: Inhibition of HCV genotype 1b Con1 NS5A expressed in HuH7 cell infected HCV genotype 2b assessed as decrease in viral replication after 3 days by luciferase reporter gene assay.
Test [4] in a line: Inhibition of HCV genotype 1b Con1 NS5A expressed in HuH7 cell infected HCV genotype 3a assessed as decrease in viral replication after 3 days by luciferase reporter gene assay.
The nature of test [5]: Inhibition of HCV genotype 1b Con1 NS5A expressed in HuH7 cell infected HCV genotype 4a assessed as decrease in viral replication after 3 days by luciferase reporter gene assay.
The nature of test [6]: Inhibition of HCV genotype 1b Con1 NS5A expressed in HuH7 cell infected HCV genotype 5a assessed as decrease in viral replication after 3 days by luciferase reporter gene assay.
Test [7] in a line: Inhibition of HCV genotype 1b Con1 NS5A expressed in HuH7 cell infected HCV genotype 2a assessed as decrease in viral replication after 3 days by luciferase reporter gene assay.
A short description of test [8]: Inhibition of HCV genotype 1b Con1 NS5A expressed in HuH7 cell infected HCV genotype 6a assessed as decrease in viral replication after 3 days by luciferase reporter gene assay.
Test [9] is described as follows: Inhibition of NS5A in HuH7 cell infected HCV genotype 1a H77 assessed as decrease in viral replication after 3 days in presence of 40% human plasma by luciferase reporter gene assay.
A short description of test [10]: Inhibition of NS5A in HuH7 cell infected HCV genotype 1b Con1 assessed as decrease in viral replication after 3 days in presence of 40% human plasma by luciferase reporter gene assay.

For the compound `COC(=O)N[C@H](C(=O)N1CCC[C@H]1c1nc2cc(F)c([C@H]3CC[C@H](c4cc5[nH]c([C@@H]6CCCN6C(=O)[C@@H](NC(=O)OC)[C@@H](C)OC)nc5cc4F)N3c3cc(F)c(N4CCC(c5ccccc5)CC4)c(F)c3)cc2[nH]1)[C@@H](C)OC`, the EC50 – broadly, the concentration needed to bring the measured effect to its halfway point – in test [1] was 1 pM; in test [2] it was 3 pM; in test [3], 3 pM; in test [4], 3 pM; in [5], 3 pM; in test [6], 2 pM. In addition, the EC50 in test [7] was 3 pM; in test [8], 4 pM; in test [9], 43 pM; in test [10], 138 pM.

As for `COC(=O)N[C@H](C(=O)N1CCC[C@H]1c1nc2cc(F)c([C@H]3CC[C@H](c4cc5[nH]c([C@@H]6CCCN6C(=O)[C@@H](NC(=O)OC)C(C)C)nc5cc4F)N3c3cc(F)c(N4CCC(c5ccc(F)cc5)CC4)c(F)c3)cc2[nH]1)C(C)C`, the EC50 was found to be 1 pM in test [1]; 3 pM in [2]; 2 pM in [3]; 1 pM in test [4]; 1 pM in test [5]; 1 pM in test [6]. The EC50 in test [7] came to 3 pM; in test [8] it was 3 pM; in [9] it was 70 pM; in test [10], 172 pM.

On to `COC(=O)N[C@H](C(=O)N1CCC[C@H]1C(=O)Nc1ccc([C@@H]2CC[C@@H](c3ccc(NC(=O)[C@@H]4CCCN4C(=O)[C@@H](NC(=O)OC)C(C)C)cc3)N2c2ccc(C(C)(C)C)cc2)cc1)C(C)C` [CHEBI:85183], for which the half-maximal effective concentration (EC50) amounted to 14 pM in [1]; 5 pM in test [2]; 4.3 pM in test [3]; 19 pM in [4]; 1.7 pM in test [5]; 3.2 pM in [6]. The EC50 is 12 pM in test [7], 366 pM in test [8], 186 pM in test [9] and 56 pM in test [10].

For `COC(=O)N[C@H](C(=O)N1CCC[C@H]1c1nc2cc(F)c([C@H]3CC[C@H](c4cc5[nH]c([C@@H]6CCCN6C(=O)[C@@H](NC(=O)OC)C6CCOCC6)nc5cc4F)N3c3cc(F)c(N4CCC(c5ccccc5)CC4)c(F)c3)cc2[nH]1)C1CCOCC1`, the EC50 in [1] was found to be 4 pM; in [2] it was 8 pM; in [3], 8 pM; in [4], 11 pM; in test [5] it was 6 pM; in test [6], 6 pM. Besides, the EC50 in test [7] was 9 pM; in [8] it was 12 pM; in test [9], 136 pM; in test [10], 337 pM.

In the case of `COC(=O)N[C@H](C(=O)N1CCC[C@H]1c1nc2cc([C@H]3CC[C@H](c4cc5nc([C@@H]6CCCN6C(=O)[C@@H](NC(=O)OC)[C@@H](C)OC)[nH]c5cc4F)N3c3cc(F)c(N4CCC(c5ccc(F)cc5)CC4)c(F)c3)c(F)cc2[nH]1)[C@@H](C)OC` [A-1325912.0], the EC50 in test [1] worked out at 1.8 pM; in test [2], 4.3 pM; in test [3] it was 1.9 pM; in [4] it was 2.1 pM; in test [5], 1.9 pM; in test [6], 1.4 pM. Further, the EC50 in test [7] was found to be 2.3 pM; in test [8], 2.8 pM; in [9] it was 64 pM; in test [10], 200 pM.

As for `COC(=O)N[C@H](C(=O)N1CCC[C@H]1c1nc2cc(F)c([C@H]3CC[C@H](c4cc5[nH]c([C@@H]6CCCN6C(=O)[C@@H](NC(=O)OC)C(C)C)nc5cc4F)N3c3cc(F)c(N4CCC(c5ccccc5)CC4)c(F)c3)cc2[nH]1)C(C)C`, the EC50 in test [1] was 2 pM; in test [2], 6 pM; in [3] it was 3 pM; in test [4], 4 pM; in test [5] it was 4 pM; in [6], 2 pM. The EC50 in test [7] came to 8 pM; in [8] it was 9 pM; in test [9] it was 58 pM; in [10] it was 135 pM.

As to `COC(=O)N[C@H](C(=O)N1CCC[C@H]1c1nc2cc(F)c([C@H]3CC[C@H](c4cc5[nH]c([C@@H]6CCCN6C(=O)[C@@H](NC(=O)OC)C6CCOCC6)nc5cc4F)N3c3cc(F)c(N4CCC(c5ccc(F)cc5)CC4)c(F)c3)cc2[nH]1)C1CCOCC1`, the EC50 in test [1] was 3 pM; in test [2] it was 7 pM; in test [3] it was 8 pM; in [4], 7 pM; in test [5] it was 6 pM; in test [6], 5 pM. Moreover, the EC50 turned out to be 8 pM in [7], 8 pM in test [8], 220 pM in test [9] and 522 pM in test [10].

On to `COC(=O)N[C@H](C(=O)N1CCC[C@H]1c1nc2ccc([C@H]3CC[C@H](c4ccc5nc([C@@H]6CCCN6C(=O)[C@@H](NC(=O)OC)C(C)C)[nH]c5c4)N3c3cc(F)c(N4CCC(c5ccccc5)CC4)c(F)c3)cc2[nH]1)C(C)C`, for which the EC50 in test [1] is 2 pM; in test [2], 6 pM; in test [3], 6 pM; in test [4], 6 pM; in [5], 4 pM; in test [6], 3 pM. In addition, the 50% effective concentration (EC50) came out at 8 pM in test [7], 8 pM in test [8], 76 pM in test [9] and 183 pM in test [10].

Consider `COC(=O)N[C@H](C(=O)N1CCC[C@H]1c1nc2cc([C@H]3CC[C@H](c4ccc5[nH]c([C@@H]6CCCN6C(=O)[C@@H](NC(=O)OC)C(C)C)nc5c4)N3c3cc(F)c(N4CCCCC4)c(F)c3)ccc2[nH]1)C(C)C`, for which the EC50 amounted to 5 pM in [1]; 6 pM in test [2]; 7 pM in [3]; 8 pM in [4]; 5 pM in test [5]; 13 pM in test [7]. Also, the concentration giving a half-maximal response (EC50) came to 7 pM in test [8], 151 pM in [9] and 241 pM in test [10].

For the compound `COC(=O)N[C@H](C(=O)N1CCC[C@H]1c1nc2ccc([C@H]3CC[C@H](c4ccc5nc([C@@H]6CCCN6C(=O)[C@@H](NC(=O)OC)C(C)C)[nH]c5c4)N3c3ccc(F)cc3)cc2[nH]1)C(C)C`, the EC50 amounted to 38 pM in test [1]; 25 pM in test [2]; 21 pM in test [3]; 31 pM in test [4]; 14 pM in [5]; 28 pM in test [7]. Moreover, the EC50 in [8] came out at 14 pM; in [9] it was 490 pM; in test [10], 427 pM.

Consider `COC(=O)N[C@H](C(=O)N1CCC[C@H]1c1nc2ccc([C@H]3CC[C@H](c4ccc5nc([C@@H]6CCCN6C(=O)[C@@H](NC(=O)OC)C(C)C)[nH]c5c4)N3c3ccc(Cl)cc3)cc2[nH]1)C(C)C`, for which the EC50 is 6 pM in [1]; 7 pM in test [2]; 7 pM in test [3]; 12 pM in test [4]; 5 pM in [5]; 12 pM in [7]. The figures for the EC50 in [8], in test [9] and in test [10] were 8 pM, 240 pM and 330 pM, respectively.

The record behind these values is BindingDB's records for doi:10.1021/acs.jmedchem.8b00082 (Abbvie, 2018).
